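Where inhibition never reached the appropriate level, the endpoint shown equals the highest concentration tested. Otherwise, values were interpolated linearly from a five-concentration, 48-hour dose response in 96-well plates. GI50 marks 50% less growth.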 Active and inactive are the calls of the source. No stated cut-off is given here; in the data, active = GI50 up to about 1.1 µM and inactive = higher.
Key:
Assay in all cases: inhibition of tumour cell growth, NCI panel, 48 h
A549 = system: A549
EKVX = system: EKVX
HCT-116 = system: HCT-116
HL-60 = system: HL-60
LOX IMVI = system: LOX IMVI
NCI-H460 = system: NCI-H460
OVCAR-3 = system: OVCAR-3
OVCAR-5 = system: OVCAR-5
OVCAR-8 = system: OVCAR-8
RPMI-8226 = system: RPMI-8226
RXF 393 = system: RXF 393
SF-295 = system: SF-295
SK-MEL-28 = system: SK-MEL-28
SK-OV-3 = system: SK-OV-3
SW-620 = system: SW-620
UO-31 = system: UO-31
OVCAR-4 = system: OVCAR-4

| SMILES | GI50 (A549) | GI50 (EKVX) | GI50 (HCT-116) | GI50 (HL-60) | GI50 (LOX IMVI) | GI50 (NCI-H460) | GI50 (OVCAR-3) | GI50 (OVCAR-5) | GI50 (OVCAR-8) | GI50 (RPMI-8226) | GI50 (RXF 393) | GI50 (SF-295) | GI50 (SK-MEL-28) | GI50 (SK-OV-3) | GI50 (SW-620) | GI50 (UO-31) | GI50 (OVCAR-4) |
| --- | --- | --- | --- | --- | --- | --- | --- | --- | --- | --- | --- | --- | --- | --- | --- | --- | --- |
| O=C(O/N=C1/CCCC/C1=C\c1ccccc1)c1ccccc1 | > 100 µM (inactive) | > 100 µM (inactive) | 34 µM (inactive) | 20.2 µM (inactive) | 33 µM (inactive) | > 10 µM (inactive) | > 100 µM (inactive) | > 100 µM (inactive) | 42.5 µM (inactive) | > 100 µM (inactive) | > 100 µM (inactive) | 70.3 µM (inactive) | > 100 µM (inactive) | > 100 µM (inactive) | > 100 µM (inactive) | > 100 µM (inactive) | – |
| O=C1CC2CCN(C(=O)c3ccccc3)CC2CCN1.O=C1CCC2CC(C(=O)c3ccccc3)CCC2CN1 (centres undefined) | > 100 µM (inactive) | > 100 µM (inactive) | > 100 µM (inactive) | > 100 µM (inactive) | – | > 100 µM (inactive) | > 100 µM (inactive) | > 100 µM (inactive) | > 100 µM (inactive) | > 100 µM (inactive) | > 100 µM (inactive) | > 100 µM (inactive) | > 100 µM (inactive) | > 100 µM (inactive) | > 100 µM (inactive) | > 100 µM (inactive) | > 100 µM (inactive) |
| C=CCc1cc(OC)c(O)c(C(=O)/C=C/c2ccc(OC)c(OC)c2)c1 | 28.9 µM (inactive) | 20.2 µM (inactive) | 14.5 µM (inactive) | 11.6 µM (inactive) | 16.3 µM (inactive) | 30.1 µM (inactive) | 19.3 µM (inactive) | 20.1 µM (inactive) | > 10 µM (inactive) | 0.67 µM (active) | – | 16.1 µM (inactive) | 16.9 µM (inactive) | 28.5 µM (inactive) | 24.4 µM (inactive) | 15.9 µM (inactive) | 16.2 µM (inactive) |
| CCOC(=O)c1s/c(=N\Nc2nc3ccccc3cc2C2OCCO2)n(Cc2ccccc2)c1C | > 100 µM (inactive) | > 100 µM (inactive) | > 100 µM (inactive) | > 100 µM (inactive) | > 100 µM (inactive) | > 100 µM (inactive) | > 100 µM (inactive) | > 100 µM (inactive) | > 100 µM (inactive) | > 100 µM (inactive) | > 100 µM (inactive) | > 100 µM (inactive) | > 100 µM (inactive) | > 100 µM (inactive) | > 100 µM (inactive) | > 100 µM (inactive) | > 100 µM (inactive) |
| Cc1c2ccnc(C(N)=O)c2c(C)c2c1[nH]c1ccccc12 | 5.47 µM (inactive) | 10.6 µM (inactive) | 2.4 µM (inactive) | 13.4 µM (inactive) | 4.65 µM (inactive) | 3.81 µM (inactive) | 9.08 µM (inactive) | 18.8 µM (inactive) | 4.13 µM (inactive) | 5.82 µM (inactive) | 4.19 µM (inactive) | 1.53 µM (inactive) | 7.78 µM (inactive) | 7.66 µM (inactive) | 3.19 µM (inactive) | 6.43 µM (inactive) | 9.31 µM (inactive) |
| O=C1NC(=O)C(C(=O)C(=O)Nc2cccc(C(F)(F)F)c2)C(=O)N1 | > 100 µM (inactive) | > 100 µM (inactive) | > 100 µM (inactive) | > 100 µM (inactive) | > 100 µM (inactive) | > 100 µM (inactive) | > 100 µM (inactive) | > 100 µM (inactive) | > 100 µM (inactive) | > 100 µM (inactive) | > 100 µM (inactive) | – | > 100 µM (inactive) | > 100 µM (inactive) | > 100 µM (inactive) | > 100 µM (inactive) | > 100 µM (inactive) |
| COC(=O)C(=O)C(C(=O)C(=O)Nc1ccccc1[N+](=O)[O-])c1nc2ccc([N+](=O)[O-])cc2nc1O (centres undefined) | > 100 µM (inactive) | > 100 µM (inactive) | > 100 µM (inactive) | > 100 µM (inactive) | > 100 µM (inactive) | > 100 µM (inactive) | – | > 100 µM (inactive) | > 100 µM (inactive) | > 100 µM (inactive) | > 100 µM (inactive) | > 100 µM (inactive) | > 100 µM (inactive) | > 100 µM (inactive) | > 100 µM (inactive) | > 100 µM (inactive) | > 100 µM (inactive) |
| CC1COS(=O)N1c1ccccc1 (centres undefined) | > 100 µM (inactive) | > 100 µM (inactive) | – | > 100 µM (inactive) | > 100 µM (inactive) | > 100 µM (inactive) | – | > 100 µM (inactive) | > 100 µM (inactive) | > 100 µM (inactive) | > 100 µM (inactive) | > 100 µM (inactive) | > 100 µM (inactive) | > 100 µM (inactive) | > 100 µM (inactive) | > 100 µM (inactive) | > 100 µM (inactive) |
| O=C(N/C(=C\c1ccc2c(c1)OCO2)c1nc2ccccc2[nH]1)c1ccccc1 | 35.2 µM (inactive) | 41.2 µM (inactive) | 31.3 µM (inactive) | 14.8 µM (inactive) | 38.5 µM (inactive) | 34.8 µM (inactive) | 24.7 µM (inactive) | 37.6 µM (inactive) | 37 µM (inactive) | 32.2 µM (inactive) | 24.7 µM (inactive) | 43.7 µM (inactive) | 17.6 µM (inactive) | 35.6 µM (inactive) | 33.6 µM (inactive) | 24.6 µM (inactive) | 19.7 µM (inactive) |
| N#CCC(=O)N/N=C(/C(=O)Nc1ccccc1)C1C(=O)N(c2ccccc2)N=C1N (centres undefined) | > 100 µM (inactive) | > 100 µM (inactive) | > 100 µM (inactive) | > 100 µM (inactive) | > 100 µM (inactive) | > 100 µM (inactive) | > 100 µM (inactive) | > 100 µM (inactive) | > 100 µM (inactive) | > 100 µM (inactive) | > 100 µM (inactive) | > 100 µM (inactive) | > 100 µM (inactive) | > 100 µM (inactive) | > 100 µM (inactive) | > 100 µM (inactive) | > 100 µM (inactive) |
| Clc1c(Cl)c2c(Cl)c(Cl)c1C[PH](c1ccccc1)(c1ccccc1)CC[PH](c1ccccc1)(c1ccccc1)Cc1c(Cl)c(Cl)c(c(Cl)c1Cl)C[PH](c1ccccc1)(c1ccccc1)CC[PH](c1ccccc1)(c1ccccc1)C2 | 3.72 µM (inactive) | 9.08 µM (inactive) | 1.79 µM (inactive) | 1.36 µM (inactive) | 2.52 µM (inactive) | 2.77 µM (inactive) | 2.66 µM (inactive) | 3.15 µM (inactive) | 3.29 µM (inactive) | 1.28 µM (inactive) | 2.49 µM (inactive) | 3.35 µM (inactive) | 2.02 µM (inactive) | 6.84 µM (inactive) | 3.31 µM (inactive) | 6.49 µM (inactive) | 1.11 µM (active) |
| CC(=O)OCC(OC(C)=O)C(OC(C)=O)C(OC(C)=O)C(=O)CNn1c(-c2ccc(C)cc2)nc2ccccc2c1=O (centres undefined) | > 100 µM (inactive) | > 100 µM (inactive) | > 100 µM (inactive) | 50 µM (inactive) | > 100 µM (inactive) | > 100 µM (inactive) | > 100 µM (inactive) | > 100 µM (inactive) | > 100 µM (inactive) | 39.4 µM (inactive) | > 100 µM (inactive) | > 100 µM (inactive) | > 100 µM (inactive) | > 100 µM (inactive) | > 100 µM (inactive) | > 100 µM (inactive) | > 100 µM (inactive) |
| CC(C)N(C(=O)C12C3C4C1(I)C1C2C3(I)C41C(=O)N(C(C)C)C(C)C)C(C)C (centres undefined) | > 100 µM (inactive) | > 100 µM (inactive) | > 100 µM (inactive) | > 44.9 µM (inactive) | > 43.5 µM (inactive) | > 100 µM (inactive) | > 100 µM (inactive) | > 100 µM (inactive) | > 100 µM (inactive) | > 52.2 µM (inactive) | > 100 µM (inactive) | > 100 µM (inactive) | > 100 µM (inactive) | > 100 µM (inactive) | > 39.2 µM (inactive) | > 100 µM (inactive) | > 58.5 µM (inactive) |
| CCOC(=O)C1C(c2ccc(Br)cc2)N(Cc2ccccc2)C(c2ccc(Br)cc2)C(C(=O)OC)S1(=O)=O (centres undefined) | 76.9 µM (inactive) | > 100 µM (inactive) | 25.2 µM (inactive) | > 100 µM (inactive) | > 100 µM (inactive) | > 100 µM (inactive) | > 100 µM (inactive) | > 100 µM (inactive) | 24.8 µM (inactive) | 32.7 µM (inactive) | 33.6 µM (inactive) | 35.4 µM (inactive) | 53.3 µM (inactive) | > 100 µM (inactive) | > 100 µM (inactive) | 49.7 µM (inactive) | 29.1 µM (inactive) |
| COc1ccccc1NC(=O)C1=C(C)NC(C)=C(C(=O)Nc2ccccc2OC)C1c1ccc([N+](=O)[O-])cc1 | > 100 µM (inactive) | 82.6 µM (inactive) | 60.5 µM (inactive) | 39.2 µM (inactive) | 48.9 µM (inactive) | 28.8 µM (inactive) | > 100 µM (inactive) | 22.4 µM (inactive) | > 100 µM (inactive) | 18.5 µM (inactive) | 60.4 µM (inactive) | 13.4 µM (inactive) | 27 µM (inactive) | > 100 µM (inactive) | 93.1 µM (inactive) | – | 56.2 µM (inactive) |
| CCCCCCCCCCCCCCCC(=O)NC1CCc2cc(O)c(O)c(O)c2-c2ccc(SC)c(=O)cc21 (centres undefined) | 1.49 µM (inactive) | 19 µM (inactive) | 3.86 µM (inactive) | 3.35 µM (inactive) | 12 µM (inactive) | 5.77 µM (inactive) | 5.28 µM (inactive) | 12.9 µM (inactive) | 7.67 µM (inactive) | 1.61 µM (inactive) | 1.46 µM (inactive) | 3.7 µM (inactive) | 6.67 µM (inactive) | 14.4 µM (inactive) | 4.84 µM (inactive) | 8.22 µM (inactive) | 10.3 µM (inactive) |
